# Laboratory results taken from ChEMBL document CHEMBL1201862, “PubChem BioAssay data set” (2004).
#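 Interpolation was linear, between the two tested concentrations surrounding the appropriate level; five concentrations were tested over 48 hours in 96-well plates. GI50 marks 50% less growth.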 Active and inactive are the calls of the source. Rule as the data show it: active = GI50 up to about 1.1 µM and inactive = higher.
# Legend:
# Assay in all cases: NCI anticancer screen, dose series, 48 h
# [1] = test system: SNB-75
# [2] = test system: CAKI-1
# [3] = test system: SW-620
# [4] = test system: OVCAR-4
# [5] = test system: SF-268
# [6] = test system: SF-539
# [7] = test system: SK-MEL-28
# [8] = test system: BT-549
# [9] = test system: HOP-92
# [10] = test system: TK-10
# [11] = test system: HCT-116
# [12] = test system: SN12C
# [13] = test system: MDA-MB-435
# [14] = test system: SR
# [15] = test system: T47D
# [16] = test system: SK-MEL-2
# [17] = test system: NCI/ADR-RES
# [18] = test system: RPMI-8226
# [19] = test system: MCF7
# [20] = test system: MOLT-4
SMILES,GI50 [1],GI50 [2],GI50 [3],GI50 [4],GI50 [5],GI50 [6],GI50 [7],GI50 [8],GI50 [9],GI50 [10],GI50 [11],GI50 [12],GI50 [13],GI50 [14],GI50 [15],GI50 [16],GI50 [17],GI50 [18],GI50 [19],GI50 [20]
CCn1nc(C)c2c1C(=O)NC(C)C(=O)N2 (configuration not stated),> 100 µM (inactive),> 100 µM (inactive),> 100 µM (inactive),> 100 µM (inactive),> 100 µM (inactive),> 100 µM (inactive),> 100 µM (inactive),> 100 µM (inactive),> 100 µM (inactive),> 100 µM (inactive),> 100 µM (inactive),36.6 µM (inactive),> 100 µM (inactive),,,,,,,
C=C(Br)CNC(=O)CCC(=O)NCC(=C)Br,> 100 µM (inactive),> 100 µM (inactive),> 100 µM (inactive),> 100 µM (inactive),> 100 µM (inactive),> 100 µM (inactive),> 100 µM (inactive),,,> 100 µM (inactive),> 100 µM (inactive),> 100 µM (inactive),> 100 µM (inactive),> 100 µM (inactive),> 100 µM (inactive),> 100 µM (inactive),> 100 µM (inactive),> 100 µM (inactive),> 100 µM (inactive),> 100 µM (inactive)
Cc1nc2ccc(Br)cc2c(=O)n1-c1ccc(N)cc1,17.2 µM (inactive),> 100 µM (inactive),> 100 µM (inactive),> 100 µM (inactive),> 100 µM (inactive),> 100 µM (inactive),> 100 µM (inactive),99.5 µM (inactive),> 100 µM (inactive),> 100 µM (inactive),> 100 µM (inactive),> 100 µM (inactive),> 100 µM (inactive),> 100 µM (inactive),,> 100 µM (inactive),> 100 µM (inactive),,> 100 µM (inactive),> 100 µM (inactive)
O=C1OC[C@@H]2Cc3cc4c(cc3[C@H](c3ccc5c(c3)OCO5)[C@@H]12)OCO4,,> 25 µM (inactive),,13.9 µM (inactive),,,> 25 µM (inactive),> 25 µM (inactive),,> 25 µM (inactive),18.2 µM (inactive),21.9 µM (inactive),13.3 µM (inactive),24 µM (inactive),,> 25 µM (inactive),9.33 µM (inactive),> 25 µM (inactive),24.2 µM (inactive),4.11 µM (inactive)
COc1ccc(N2C(=O)C3c4[nH]c5cccc(C)c5c4C4CCC(C(C)(C)C)CC4C3C2=O)cc1 (configuration not stated),5.15 µM (inactive),> 10 µM (inactive),> 10 µM (inactive),0.796 µM (active),> 10 µM (inactive),> 10 µM (inactive),> 10 µM (inactive),,,> 10 µM (inactive),5.62 µM (inactive),> 10 µM (inactive),> 10 µM (inactive),> 10 µM (inactive),> 10 µM (inactive),> 10 µM (inactive),> 10 µM (inactive),> 10 µM (inactive),> 10 µM (inactive),> 10 µM (inactive)
SC1=NC2=C(CSC/C2=C\c2ccc(Cl)cc2)C(c2ccc(Cl)cc2)N1 (configuration not stated),,42.3 µM (inactive),41.3 µM (inactive),42.5 µM (inactive),75.7 µM (inactive),,> 100 µM (inactive),,29.5 µM (inactive),36.6 µM (inactive),27.5 µM (inactive),33.2 µM (inactive),,32.2 µM (inactive),28.6 µM (inactive),34.2 µM (inactive),38.1 µM (inactive),37 µM (inactive),30.8 µM (inactive),31.1 µM (inactive)
Nc1nc2c(c(-c3ccc(F)cc3)n1)COC/C2=C\c1ccc(F)cc1,20.5 µM (inactive),> 100 µM (inactive),> 100 µM (inactive),> 100 µM (inactive),14.5 µM (inactive),> 100 µM (inactive),> 100 µM (inactive),43.5 µM (inactive),30.4 µM (inactive),30.1 µM (inactive),,> 100 µM (inactive),41.2 µM (inactive),17 µM (inactive),,> 100 µM (inactive),65.8 µM (inactive),71.6 µM (inactive),28.1 µM (inactive),51.2 µM (inactive)
O=C1OC(C(O)CO)C(O)=C1O (configuration not stated),99.8 µM (inactive),> 100 µM (inactive),> 100 µM (inactive),> 100 µM (inactive),> 100 µM (inactive),> 100 µM (inactive),> 100 µM (inactive),,> 100 µM (inactive),> 100 µM (inactive),> 100 µM (inactive),> 100 µM (inactive),> 100 µM (inactive),55.3 µM (inactive),> 100 µM (inactive),> 100 µM (inactive),> 100 µM (inactive),49.2 µM (inactive),> 100 µM (inactive),> 100 µM (inactive)
CCOC(=O)/C(=C\NC(C)(C)CO)c1nc2ccccc2[nH]1,> 100 µM (inactive),> 100 µM (inactive),> 100 µM (inactive),94 µM (inactive),81.5 µM (inactive),> 100 µM (inactive),77.8 µM (inactive),> 100 µM (inactive),77.4 µM (inactive),63.8 µM (inactive),> 100 µM (inactive),> 100 µM (inactive),> 100 µM (inactive),47.3 µM (inactive),,,79.6 µM (inactive),30.8 µM (inactive),86.3 µM (inactive),43.3 µM (inactive)
O/N=C1\CC2(N3CCOCC3)CCC1(Cc1ccccc1)CC2,13.5 µM (inactive),64.3 µM (inactive),> 100 µM (inactive),32.5 µM (inactive),30.9 µM (inactive),23.2 µM (inactive),> 100 µM (inactive),,28.6 µM (inactive),,35.6 µM (inactive),> 100 µM (inactive),> 100 µM (inactive),> 100 µM (inactive),32 µM (inactive),37.4 µM (inactive),61.1 µM (inactive),,> 100 µM (inactive),> 100 µM (inactive)
CC(=O)N1C(C(=O)NC2CCCCC2)CSC1c1ccccc1 (configuration not stated),> 100 µM (inactive),> 100 µM (inactive),> 100 µM (inactive),> 100 µM (inactive),> 100 µM (inactive),> 100 µM (inactive),,> 100 µM (inactive),68.2 µM (inactive),> 100 µM (inactive),> 100 µM (inactive),> 100 µM (inactive),> 100 µM (inactive),> 100 µM (inactive),,> 100 µM (inactive),> 100 µM (inactive),> 100 µM (inactive),> 100 µM (inactive),> 100 µM (inactive)
CCOP(=O)(OCC)/C(C#N)=C/c1cn(C)cn1,> 100 µM (inactive),> 100 µM (inactive),> 100 µM (inactive),> 100 µM (inactive),> 100 µM (inactive),> 100 µM (inactive),> 100 µM (inactive),> 100 µM (inactive),> 100 µM (inactive),> 100 µM (inactive),,> 100 µM (inactive),> 100 µM (inactive),> 100 µM (inactive),,> 100 µM (inactive),> 100 µM (inactive),,> 100 µM (inactive),> 10 µM (inactive)
COC(=O)Cc1cc2c(cc1C(=O)c1ccc(N)cc1)OCO2,1.21 µM (inactive),3.48 µM (inactive),1.19 µM (inactive),11.2 µM (inactive),2.62 µM (inactive),2.9 µM (inactive),3.36 µM (inactive),,2.37 µM (inactive),> 19.7 µM (inactive),1.77 µM (inactive),5.96 µM (inactive),0.169 µM (active),0.117 µM (active),,0.964 µM (active),0.667 µM (active),1.5 µM (inactive),0.902 µM (active),1.63 µM (inactive)
[O-][S+]1Nc2c(Cl)cc(Cl)c(Cl)c2S1 (configuration not stated),22.7 µM (inactive),41.2 µM (inactive),5.62 µM (inactive),> 100 µM (inactive),> 100 µM (inactive),> 100 µM (inactive),> 100 µM (inactive),,35.2 µM (inactive),> 100 µM (inactive),> 100 µM (inactive),> 100 µM (inactive),,43.1 µM (inactive),,> 100 µM (inactive),,> 100 µM (inactive),,34.7 µM (inactive)
CCOP(=O)(O)C(C)(C)NC,,> 10 µM (inactive),> 100 µM (inactive),> 100 µM (inactive),> 100 µM (inactive),> 100 µM (inactive),> 100 µM (inactive),,> 100 µM (inactive),> 100 µM (inactive),> 100 µM (inactive),> 100 µM (inactive),> 100 µM (inactive),,> 100 µM (inactive),> 100 µM (inactive),> 100 µM (inactive),> 100 µM (inactive),,> 100 µM (inactive)
O=S(=O)(O)c1cc(S(=O)(=O)O)c2cc(/N=N/c3ccc(/N=N/c4ccc(/C=C/c5ccc(/N=[N+](/[O-])c6ccc(/C=C/c7ccc(/N=N/c8ccc(/N=N/c9ccc%10cc(S(=O)(=O)O)cc(S(=O)(=O)O)c%10c9)cc8)cc7S(=O)(=O)O)c(S(=O)(=O)O)c6)cc5S(=O)(=O)O)c(S(=O)(=O)O)c4)cc3)ccc2c1,35.8 µM (inactive),,> 10 µM (inactive),> 48.1 µM (inactive),> 69 µM (inactive),> 59 µM (inactive),> 100 µM (inactive),,> 58.5 µM (inactive),,> 28.6 µM (inactive),> 54.1 µM (inactive),,,,83.9 µM (inactive),> 100 µM (inactive),46.5 µM (inactive),> 100 µM (inactive),> 79.3 µM (inactive)
